According to PMC11982978, “Cancer hotspot mutations rewire ERK2 specificity by selective exclusion of docking interactions” (The Journal of Biological Chemistry, 2025):
pIC50: −log10 of the molar value. Values joined by “and” are separate entries in the source; they are usually repeats but may differ in a detail not shown here. Equal values may be shown once. Read-outs that look alike come from different tables or passages of the source. Peptide text beside a SMILES is read from it.

Tests used:
WT ERK2 [1] = assay: Y2H D-site library screen, WT ERK2; assay type: cell-based, rat; parameters: key: ES = slope of ln(Ft/F0) vs number of yeast population doublings; settings: mutant ES is the combined average ES from the D319N and E320K screens
Excerpt: To examine how cancer-associated CD site mutations affect the scope of ERK2 docking interactions, we adopted a Y2H strategy that we previously applied to define the D-site interactome of WT ERK2 ([15]). This system reports on interactions between ERK2 and a fragment of its substrate ELK1 that harbors a docking site essential for binding (Fig. 1C). The system thus evaluates the binding of potential sequences by substituting them for the native ELK1 docking site. We transformed Y2H strains with a bait plasmid expressing the Gal4 DNA-binding domain (DBD) fused to WT or CD mutant forms of rat ERK2 (R133K, D319N or E320K, equivalent respectively to human R135K, D321N and E322K), along with a prey plasmid expressing Gal4 activation domain (AD) fused to the ELK1 fragment harboring various docking site sequences. We then assayed these strains for growth on solid media under non-selective (+His) and selective conditions (−His) to detect interactions (Fig. 1D).
We previously used the Y2H system to screen WT ERK2 against a pooled library of 11,756 ELK1 variants incorporating potential docking sites from the human proteome ([15]). To identify interacting sequences either gained or lost upon ERK2 CD site mutation, we screened the same library against ERK2^D319N and ERK2^E320K. Yeast expressing ERK2 mutant bait plasmids were transformed with the ELK1 library pool and subjected to competitive growth under selective (−His) and non-selective conditions (+His) in parallel. Cultures were sampled periodically over ∼7 population doublings. The DNA sequence encoding the variable docking site region was PCR amplified and analyzed by next-generation sequencing (Fig. 2A, Dataset S1). The change in sequence abundance over time was fitted to an exponential function to assign an enrichment score (ES) to each docking site, where a higher ES indicates a greater increase in sequence abundance as the population grows. A significant enrichment of docking site sequences was observed only under selective conditions (Figs. 2B, S1). For each mutant, we observed generally good reproducibility across three independently conducted screens albeit with some sequences enriched in only a single replicate (Fig. S2, A and B). Average ES scores for the E320K and D319N mutant screens were better correlated with each other (R = 0.83) than were average ES scores for either mutant compared to WT ERK2 (R = 0.67 for WT versus D319N, R = 0.63 for WT versus E320K) (Fig. S2C).
To compare sequences selected by CD mutants with those selected by WT ERK2, we defined those sequences with an ES equal to or higher than three standard deviations from the mean (Z > 3) as hits. Using this cutoff, we obtained 121, 127, and 153 hits sequences from the WT, D319N, and E320K screens, respectively (Fig. 2C, Dataset S2).
Yeast harboring pGBT9-ERK2^E320K or pGBT9-ERK2^D319N were transformed with the pGADGH-ELK1 D-site library plasmid pool. Transformants (10–40 colonies per library component) were suspended in SD-Leu-Trp media, diluted to an OD600 of 0.1, and cultured in a shaking incubator at 30 °C to an OD600 of 1.0. The resulting culture was used to initiate a competitive selection screen. Cell growth, sample collection and data analysis were performed exactly as described previously for WT ERK2 ([15]). The frequency (F) of each D-site sequence at a given time point (t) was calculated by dividing the number of reads by the total read count for all sequences. For each sequence, a plot of ln(Ft/F0) as a function of the number of yeast population doublings was fit to a line, and the enrichment score (ES) for that sequence was defined as the slope of this line. Illumina sequencing reads, calculated ES, and Z scores for each screen are provided in Dataset S1.

WT ERK2 [2] = settings: selective conditions (-His); hits Z > 3; average of three screens; cited from earlier work
Excerpt: Supplement mmc2.xlsx, sheet "WT Hits" | column: Z-score

ERK2 WT = target: T1, ERK2 WT (Mus musculus, UniProt P63085); assay: Competitive peptide kinase assay (D-peptide inhibition), ERK2 WT; assay type: biochemical; settings: 10 nM ERK2, 10 μM ATP
T1 construct: His6; made in house; host or cells: E. coli BL21(DE3), co-expressed with GST-MEK1ΔN3
T1 sequence (P63085 whole entry): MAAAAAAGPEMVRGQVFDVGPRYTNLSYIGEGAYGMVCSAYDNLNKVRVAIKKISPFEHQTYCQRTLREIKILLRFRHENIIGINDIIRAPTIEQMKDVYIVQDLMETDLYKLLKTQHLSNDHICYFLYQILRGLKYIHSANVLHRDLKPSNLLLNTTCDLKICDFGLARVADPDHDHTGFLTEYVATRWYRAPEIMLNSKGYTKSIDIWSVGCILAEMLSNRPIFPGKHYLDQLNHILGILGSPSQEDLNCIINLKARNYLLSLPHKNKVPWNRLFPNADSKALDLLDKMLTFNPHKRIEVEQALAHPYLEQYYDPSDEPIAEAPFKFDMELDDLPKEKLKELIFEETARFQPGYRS
Method: (§1) We determined relative binding affinities for D-peptides from their potency as competitive inhibitors of WT or mutant ERK2 activity on a D-site-dependent reporter substrate peptide (Table S1, Fig. 3A, S3).
(§2) Competitive peptide kinase assays were performed with a D-site dependent MAPK reporter substrate peptide (AssayQuant Technologies Inc, #AQT0376) as we reported previously ([15]). Briefly, 5 μM of reporter peptide was mixed with various concentrations of D-peptides in reaction buffer (54 mM HEPES [pH 7.4], 1.2 mM DTT, 0.01% Brij-35, 1% glycerol, 0.2 mg/ml BSA, and 10 mM MgCl2). […] Phosphorylation of the reporter peptide was measured by fluorescence (λex 360 nm, λem 485 nm) in 90 s intervals over 21 min in a Spectra M5 plate reader. Rates were calculated from the linear portion of the reaction progress curve, and data were normalized to maximum (samples lacking competitor peptide) and minimum (control reactions lacking kinase) values. Normalized rates were plotted against D-peptide concentration and fitted into a sigmoidal dose-response curve to determine the IC50 values using GraphPad Prism (Version 9.3.0).

ERK2 E322K = target: T2, ERK2 E322K (Mus musculus, UniProt P63085, E320K); assay: Competitive peptide kinase assay (D-peptide inhibition), ERK2 E322K; assay type: biochemical; settings: Table 2, 5 μM reporter peptide, 10 nM ERK2, 10 μM ATP, mean of three independent replicates, read-out: IC50, ERK2 E322 K
T2 construct: His6; made in house; host or cells: E. coli BL21(DE3), co-expressed with GST-MEK1ΔN3
T2 sequence (P63085 whole entry E320K): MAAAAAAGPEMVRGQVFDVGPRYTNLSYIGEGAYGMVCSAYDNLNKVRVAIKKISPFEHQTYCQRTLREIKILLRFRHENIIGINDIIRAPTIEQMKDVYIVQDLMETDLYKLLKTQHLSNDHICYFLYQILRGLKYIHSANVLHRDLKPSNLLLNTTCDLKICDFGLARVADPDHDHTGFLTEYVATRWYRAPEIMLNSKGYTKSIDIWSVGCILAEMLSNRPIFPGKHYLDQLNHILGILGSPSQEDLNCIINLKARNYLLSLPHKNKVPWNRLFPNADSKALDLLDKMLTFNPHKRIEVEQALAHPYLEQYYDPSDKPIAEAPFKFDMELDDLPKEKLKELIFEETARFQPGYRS
Method: as §1, §2

ERK2 R133K = target: T3, ERK2 R133K (Mus musculus, UniProt P63085, R133K); assay: Competitive peptide kinase assay (D-peptide inhibition), ERK2 R133K; assay type: biochemical; settings: 10 nM ERK2, 10 μM ATP
T3 construct: His6; made in house; host or cells: E. coli BL21(DE3), co-expressed with GST-MEK1ΔN3
T3 sequence (P63085 whole entry R133K): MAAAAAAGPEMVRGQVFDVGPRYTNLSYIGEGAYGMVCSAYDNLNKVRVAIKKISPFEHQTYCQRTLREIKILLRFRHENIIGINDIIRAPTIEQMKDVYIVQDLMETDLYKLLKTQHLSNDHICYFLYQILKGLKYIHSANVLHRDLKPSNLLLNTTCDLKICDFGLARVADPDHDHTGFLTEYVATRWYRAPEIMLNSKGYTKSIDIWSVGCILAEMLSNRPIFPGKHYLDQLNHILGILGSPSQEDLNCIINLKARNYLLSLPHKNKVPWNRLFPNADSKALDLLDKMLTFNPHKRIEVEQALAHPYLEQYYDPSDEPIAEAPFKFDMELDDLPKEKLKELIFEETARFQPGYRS
Method: as §1, §2

[3] = Table 2, 5 μM D-site dependent reporter peptide, pH 7.4, fluorescence, mean of three independent replicates
[4] = Table S1, 5 μM reporter peptide, three independent experiments

Compound	WT ES - mutant ES (WT ERK2 [1])	Z-score (ES) of hit sequences, WT ERK2 Y2H screen (WT ERK2 [2])	further results
LWTRRRSERIFLHD [TNRC18, D-site 14-mer in ELK1 Y2H prey]	0.332	7.78	–
CC[C@H](C)[C@H](NC(=O)[C@H](C)NC(=O)[C@@H](N)Cc1ccc(O)cc1)C(=O)NCC(=O)N[C@@H](CCCNC(=N)N)C(=O)N[C@@H](C)C(=O)N[C@@H](CCCNC(=N)N)C(=O)N[C@@H](CCCNC(=N)N)C(=O)NCC(=O)N[C@@H](CC(C)C)C(=O)N1CCC[C@H]1C(=O)N[C@@H](CCCNC(=N)N)C(=O)N[C@@H](CC(C)C)C(=O)N[C@@H](C)C(=O)N[C@H](C(=O)N[C@@H](CO)C(=O)N[C@@H](CC(=O)O)C(=O)O)C(C)C [ISG20 peptide G2+] (H-YAIGRARRGLPRLAVSD-OH)	–	–	pIC50 (ERK2 WT; [3]): 3.92; pIC50 (ERK2 E322K): 3.77
RRRGRPPKRIHISQ [BAZ1A, D-site 14-mer in ELK1 Y2H prey]	0.150	4.55	–
GSRCARIFRLVLQK [POLR3C, D-site 14-mer in ELK1 Y2H prey]	0.285	6.39	–
RLQERRGSNVALML [PTPN7, D-site 14-mer in ELK1 Y2H prey]	0.474	9.09	–
CSCC[C@H](NC(=O)[C@H](CC(C)C)NC(=O)[C@H](C)NC(=O)[C@@H](N)Cc1ccc(O)cc1)C(=O)N[C@@H](CCC(=O)O)C(=O)N[C@@H](CCCNC(=N)N)C(=O)N[C@@H](CCCNC(=N)N)C(=O)N[C@@H](CCCNC(=N)N)C(=O)N[C@@H](CC(C)C)C(=O)N[C@@H](CC(N)=O)C(=O)N[C@@H](CCC(N)=O)C(=O)N[C@@H](CC(C)C)C(=O)N[C@@H](CC(C)C)C(=O)N[C@@H](CC(C)C)C(=O)N1CCC[C@H]1C(=O)N[C@@H](CC(C)C)C(=O)O [ANAPC5] (H-YALMERRRLNQLLLPL-OH)	–	–	pIC50 (ERK2 WT; [4]): 4.49; pIC50 (ERK2 R133K; [4]): 3.47
RRMRRAGQALKLPS [HAS3, D-site 14-mer in ELK1 Y2H prey]	0.310	7.82	–
CC[C@H](C)[C@H](NC(=O)[C@H](CCCNC(=N)N)NC(=O)[C@H](C)NC(=O)[C@@H](N)Cc1ccc(O)cc1)C(=O)N[C@@H](C)C(=O)N[C@@H](CCCNC(=N)N)C(=O)N[C@@H](CCCNC(=N)N)C(=O)NCC(=O)N[C@@H](CC(C)C)C(=O)N1CCC[C@H]1C(=O)N[C@@H](CCCNC(=N)N)C(=O)N[C@@H](CC(C)C)C(=O)N[C@@H](C)C(=O)N[C@H](C(=O)N[C@@H](CO)C(=O)N[C@@H](CC(=O)O)C(=O)O)C(C)C [ISG20 peptide I1R/R2I]	–	–	pIC50 (ERK2 WT; [3]): 3.70
CLSWKRMAGIFFLP [GLB1L3, D-site 14-mer in ELK1 Y2H prey]	0.781	14.12	–
HLSRHKIIHIGIHT [ZNF493, D-site 14-mer in ELK1 Y2H prey]	0.221	5.90	–
ILLRRSLEAIELGL [KLC2, D-site 14-mer in ELK1 Y2H prey]	0.282	5.90	–
CC[C@H](C)[C@H](NC(=O)[C@H](C)NC(=O)[C@@H](N)Cc1ccc(O)cc1)C(=O)N[C@@H](CCCNC(=N)N)C(=O)N[C@@H](C)C(=O)N[C@@H](C)C(=O)N[C@@H](CCCNC(=N)N)C(=O)NCC(=O)N[C@@H](CC(C)C)C(=O)N1CCC[C@H]1C(=O)N[C@@H](CCCNC(=N)N)C(=O)N[C@@H](CC(C)C)C(=O)N[C@@H](C)C(=O)N[C@H](C(=O)N[C@@H](CO)C(=O)N[C@@H](CC(=O)O)C(=O)O)C(C)C [ISG20 peptide R4A]	–	–	pIC50 (ERK2 E322K): 3.52
LYKRRKESILTIQK [ASPM, D-site 14-mer, start residue 1508, in ELK1 Y2H prey]	0.329	7.80 and 6.10	–
RSKLRKPKPVPLRK [TACC1, D-site 14-mer in ELK1 Y2H prey]	0.162	5.18	–
PLFLRRKPVLSFQG [LIG3, D-site 14-mer in ELK1 Y2H prey]	0.487	10.87	–
IRARRGLPRLAVSD [ISG20, D-site 14-mer in ELK1 Y2H prey]	0.761	14.42	–
RLLWRRLKPLILGK [ABCA7, D-site 14-mer in ELK1 Y2H prey]	0.266	5.86	–
TRHERNYTKVNFCK [ZNF675, D-site 14-mer in ELK1 Y2H prey]	0.359	7.60	–
CC(C)C[C@H](NC(=O)[C@H](CCCNC(=N)N)NC(=O)[C@@H]1CCCN1C(=O)[C@H](CC(C)C)NC(=O)CNC(=O)[C@H](CCCNC(=N)N)NC(=O)[C@H](CCCNC(=N)N)NC(=O)[C@H](C)NC(=O)[C@H](CCCNC(=N)N)NC(=O)[C@H](CC(N)=O)NC(=O)[C@H](C)NC(=O)[C@@H](N)Cc1ccc(O)cc1)C(=O)N[C@@H](C)C(=O)N[C@H](C(=O)N[C@@H](CO)C(=O)N[C@@H](CC(=O)O)C(=O)O)C(C)C [ISG20 peptide I1N]	–	–	pIC50 (ERK2 WT; [3]): 3.72
CC[C@H](C)[C@H](NC(=O)[C@H](C)NC(=O)[C@@H](N)Cc1ccc(O)cc1)C(=O)N[C@@H](CCCNC(=N)N)C(=O)N[C@@H](C)C(=O)N[C@@H](CCCNC(=N)N)C(=O)N[C@@H](C)C(=O)NCC(=O)N[C@@H](CC(C)C)C(=O)N1CCC[C@H]1C(=O)N[C@@H](CCCNC(=N)N)C(=O)N[C@@H](CC(C)C)C(=O)N[C@@H](C)C(=O)N[C@H](C(=O)N[C@@H](CO)C(=O)N[C@@H](CC(=O)O)C(=O)O)C(C)C [ISG20 peptide R5A]	–	–	pIC50 (ERK2 E322K): 3.40
RLRNRNCLELKIKD [ANKRD12, D-site 14-mer in ELK1 Y2H prey]	0.443	10.11	–
CC[C@H](C)[C@H](NC(=O)[C@H](C)NC(=O)[C@@H](N)Cc1ccc(O)cc1)C(=O)N[C@@H](CCCNC(=N)N)C(=O)N[C@@H](C)C(=O)N[C@@H](CCCNC(=N)N)C(=O)N[C@@H](CCCNC(=N)N)C(=O)NCC(=O)NCC(=O)N[C@@H](CC(C)C)C(=O)N1CCC[C@H]1C(=O)N[C@@H](CCCNC(=N)N)C(=O)N[C@@H](CC(C)C)C(=O)N[C@@H](C)C(=O)N[C@H](C(=O)N[C@@H](CO)C(=O)N[C@@H](CC(=O)O)C(=O)O)C(C)C [ISG20 peptide G7+] (H-YAIRARRGGLPRLAVSD-OH)	–	–	pIC50 (ERK2 WT; [3]): 4.12; pIC50 (ERK2 R133K; Table 2, 5 μM reporter peptide, mean of three independent replicates, read-out: IC50, ERK2 R133 K): 3.77; pIC50 (ERK2 E322K): 3.68
